Consider 3 compounds from patent US20200289474A1, “METHODS OF TREATING PAIN WITH A THIAZOLINE ANTI-HYPERALGESIC” (priority 2019, published 2020).

Structures are written as SMILES. Where only a bound is given, the exact number is not on record here.

Format in all cases: in vivo, rat
The subject of assay [1] is STZ-induced mechanical allodynia. The experiment in a line: STZ-induced diabetic rats, subsequent study. The procedure:
(§1) Experiments were conducted to determine the effect of Compound 1 in streptozotocin (STZ)-induced diabetic rats. In the first experiment, after obtaining mechanical threshold baselines, STZ (50 mg/kg IV) was administered (Day −7). Two days later, blood glucose levels were measured and animals that were hyperglycemic (>250 mg/dL) continued in the study. On Day 0 the baseline for mechanical thresholds prior to dosing with test articles was established for the rats. Compound 1 (10, 30, and 100 mg/kg PO), gabapentin (100 mg/kg PO) or vehicle was then administered daily for 5 days. On Day 0 mechanical thresholds were obtained at 1, 3, and 6 h post-dose. On Day 1 mechanical thresholds were measured immediately prior to dosing and then 3 h post-dose. The same regimen was followed on Day 3.
In a subsequent study, the same STZ paradigm was followed. However, in addition to the 100 mg/kg Compound 1 group, two additional cohorts received the Compound 1 100 mg/kg dose split into two or three doses per day with 50 mg/kg BID and 33 mg/kg TID. In addition to the gabapentin (100 mg/kg PO) group, a separate cohort received duloxetine (30 mg/kg PO). Additionally, in this study mechanical threshold testing was implemented every day immediately prior to dosing and 2 h post-dose for 7 days.

Assay [2] shares this test system. Put plainly: streptozotocin (STZ)-induced diabetic rats, first experiment. To be noted: gabapentin 100 mg/kg PO daily; 1 h post-dose Day 0 and all time points thereafter. As to the method: FIG. 14 illustrates non-limiting reversal of mechanical hypersensitivity by Compound 1 in a diabetic neuropathy model, in accordance with various embodiments. Streptozotocin (STZ) destroys insulin-producing cells and generates a diabetic phenotype in […]. Animals were dosed with STZ on day −7. By day 0 animals are hyperglycemic and hyperalgesic (day 0 BL).
as §1

For assay [3], the system named is incision-induced hyperalgesia. Put plainly: Brennan protocol, treatment paradigm (established hyperalgesia). Conditions: morphine 3 mg/kg SC. The text has this:
Two incisional pain models were used to assess Compound 1 effects on hyperalgesia. The first model is referred to as the Brennan model in which, under anesthesia, a 1 cm longitudinal incision to the skin and underlying fascia of a rat hindpaw is made. The second is a variation but is a more invasive procedure in which the skin and muscle are spread apart using forceps which creates a longer-lasting hypersensitivity.
Using the Brennan protocol and a treatment paradigm in rat, Compound 1 (10 and 30 mg/kg PO), morphine (3 mg/kg SC) or vehicle were administered daily at 24 h post-incision, and again at 48 and 72 h post-incision. Mechanical thresholds were obtained at 1 h and 2 h post-dose in all cohorts on all days.

As for `CNCC[C@H](Oc1cccc2ccccc12)c1cccs1` [duloxetine, reference compound], in assay [1] (duloxetine 30 mg/kg PO), the reversal of allodynia result is reported as “required successive doses for appreciable activity”.

As for `NCC1(CC(=O)O)CCCCC1` [gabapentin, reference compound], the reversal of allodynia result in assay [1] (gabapentin 100 mg/kg PO, throughout the study) was “robustly reversed the allodynia”. Also, the “reversal of allodynia (mechanical thresholds)” value in assay [2] is on record as “significant reversal of allodynia”.

In the case of `CN1CC[C@]23c4c5ccc(O)c4O[C@H]2[C@@H](O)C=C[C@H]3[C@H]1C5` [morphine], the mechanical threshold is recorded as 45 g in assay [3] (Day 1, 1 h post-dose (baseline 35 g)) and below 15 g in assay [3] (Day 2 prior to dosing). The analgesic effect entry in assay [3] (Day 1, 2 h post-dose) is “this effect waned”. Also, the hyperalgesia entry in assay [3] (Day 2, 1 h) is reported as “not hyperalgesic”; in assay [3] (Day 2, 2 h), “mild hyperalgesia”.
